Molecules are shown by their SMILES. Like-named read-outs stand apart in the source and are kept apart here.

This note sets out measurements from EP4786466A1, “QUINAZOLINE DERIVATIVE, SALT THEREOF, AND PHARMACEUTICAL COMPOSITION COMPRISING SAME AS ACTIVE INGREDIENT” (Korea Research Institute of Chemical Technology, priority 2023, dated 2025).

The target in data set [1] is T1, Recombinant GST-TAG-MASTL (Homo sapiens, UniProt Q96GX5).
T1 construct: GST; purchased Thermo Fisher Scientific
T1 sequence (Q96GX5 1-879): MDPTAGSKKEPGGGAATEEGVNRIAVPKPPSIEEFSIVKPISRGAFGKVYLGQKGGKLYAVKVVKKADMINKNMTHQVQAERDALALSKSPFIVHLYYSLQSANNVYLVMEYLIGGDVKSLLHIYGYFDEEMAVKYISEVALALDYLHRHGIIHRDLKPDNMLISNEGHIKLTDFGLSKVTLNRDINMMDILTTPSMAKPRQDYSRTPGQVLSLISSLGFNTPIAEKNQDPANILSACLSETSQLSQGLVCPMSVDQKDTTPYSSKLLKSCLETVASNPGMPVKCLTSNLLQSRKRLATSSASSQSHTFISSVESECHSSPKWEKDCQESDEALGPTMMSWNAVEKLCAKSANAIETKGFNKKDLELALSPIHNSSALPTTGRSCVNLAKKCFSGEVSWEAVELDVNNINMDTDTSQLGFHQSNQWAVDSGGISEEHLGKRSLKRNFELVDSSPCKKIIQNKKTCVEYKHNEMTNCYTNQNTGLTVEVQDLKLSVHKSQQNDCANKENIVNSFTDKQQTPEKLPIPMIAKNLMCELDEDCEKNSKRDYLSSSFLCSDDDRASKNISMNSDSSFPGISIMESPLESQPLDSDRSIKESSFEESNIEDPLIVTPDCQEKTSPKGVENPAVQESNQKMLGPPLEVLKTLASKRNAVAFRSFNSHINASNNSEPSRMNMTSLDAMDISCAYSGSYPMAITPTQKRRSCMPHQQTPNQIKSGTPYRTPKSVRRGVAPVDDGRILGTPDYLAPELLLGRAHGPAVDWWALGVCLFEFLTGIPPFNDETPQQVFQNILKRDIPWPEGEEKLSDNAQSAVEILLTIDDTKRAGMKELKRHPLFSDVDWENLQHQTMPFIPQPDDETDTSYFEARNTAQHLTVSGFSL
The experiment in a line: HTRF-based kinase assay (HTRF KinEASE assay kit). The class given is biochemical. Conditions: for activity at 1 µM: read-out: MASTL activity (%) HTRF (1 µM); for IC50: HTRF, read-out: IC50(nM) MASTL activity. The text has this:
Recombinant GST-TAG-MASTL (Thermo Fisher Scientific, MA, USA) was used for HTRF-based kinase assays. The HTRF KinEASE assay kit (CisBio, MA, USA) was used according to the manufacturer's instructions.
(In general: In TR-FRET formats the signal depends on donor and acceptor labels being close together.)

For data set [2], the system named is pENSA. The data set can be described thus: pENSA level by immunofluorescence (described method: in vitro kinase analysis with GST-tag-MASTL and His-tag-ENSA). In kind it is cell-based. Conditions: for pENSA (%) Immunofluor ecense (1 µM): compound 1 µM. In short, it runs like this:
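In vitro kinase reaction using recombinant GST-tagged MASTL with His-tagged ENSA as substrate; phosphorylated ENSA (pENSA) serves as read-out of MASTL activity. Cell lines named: MCF7 breast cancer and MCF10A.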

A short description of data set [3]: in vitro. As to conditions: human, mcf10a cells.
Procedure: (§1) MCF7 breast cancer cell lines and MCF10A normal breast cancer cell lines were treated with serial dilutions of the compounds of the present invention ranging from 1 µM to 15.63 nM for 72 hours. Cell viability was measured by the WST-8 assay (Cyto XTM cell viability assay kit; LPS solution, Daejeon, Korea) according to the manufacturer's instructions.
Data set [4] deals with MCF7 breast cancer cell lines. The data set can be described thus: Cell viability analysis, WST-8 assay, MCF7. As to conditions: Homo sapiens, MCF7, 72 h; for viability at 1 µM: read-out: Cell viability (%) WST-8, MCF7 (1 µM), compound 1 µM, 72 hours. (In general: Tetrazolium dyes change colour on reduction, which living cells bring about.)
Procedure: as §1

`C1=C(c2cccc3ccccc23)CCN(c2nc(Nc3cc(C4CC4)[nH]n3)c3ccccc3n2)C1` [compound 6i, M-(5-cyclopropyl-1G-pyrazol-3-yl)-2-(4-(naphthalen-1-yl)-3,6-dihydropyridin-1(2G)-yl)quinazolin-4-amine]: in data set [1] (compound 1 µM), the activity at 1 µM came out at 74.6%. Further, the “pENSA (%) Immunofluor ecense (1 µM)” value in data set [2] is given as 97.2%. The values for the viability at 1 µM in data set [3] and in data set [4] were 122% and 113%, respectively.

With `Fc1ccccc1C1=CCN(c2nc(Nc3cc(C4CC4)[nH]n3)c3ccccc3n2)CC1` [compound 6k, M-(5-cyclopropyl-1G-pyrazol-3-yl)-2-(4-(2-fluorophenyl)-3,6-dihydropyridin-1(2G)-yl)quinazolin-4-amine], the IC50 (commonly the point on the concentration scale where inhibition reaches its midpoint) in data set [1] is 406 nM. The activity at 1 µM in data set [1] (compound 1 µM) was 40.6%. Further, the “pENSA (%) Immunofluor ecense (1 µM)” value in data set [2] is given as 82%. The viability at 1 µM in data set [3] came out at 90.8%; in data set [4], 91%.

On to `CCc1ccccc1C1=CCN(c2nc(Nc3cc(C4CC4)[nH]n3)c3ccccc3n2)CC1` [compound 6m, M-(5-cyclopropyl-1G-pyrazol-3-yl)-2-(4-(2-ethylphenyl)-3,6-dihydropyridin-1(2G)-yl)quinazolin-4-amine], for which, in data set [1] (compound 1 µM), the activity at 1 µM stood at 51.8%. Moreover, the “pENSA (%) Immunofluor ecense (1 µM)” value in data set [2] is 97.1%. In addition, the results for the viability at 1 µM in data set [3] and in data set [4] were 115% and 65.7%, respectively.

Turning to `CC(C)(C)OC(=O)N1CC=C(c2nc(Nc3cc(C4CC4)[nH]n3)c3ccccc3n2)CC1` [compound 7, sdqs-butyl 4-(4-((5-cyclopropyl-1G-pyrazol-3-yl)amino)quinazolin-2-yl)-3,6-dihydropyridine-1(2G)-carboxylate], the IC50 in data set [1] amounted to 315 nM. In data set [1] (compound 1 µM), the activity at 1 µM was determined as 31%. In addition, the “pENSA (%) Immunofluor ecense (1 µM)” value in data set [2] worked out at 68.2%. In addition, the viability at 1 µM in data set [3] came out at 54.9%; in data set [4] it was 84.2%.

Consider `C1=C(c2nc(Nc3cc(C4CC4)[nH]n3)c3ccccc3n2)CCNC1` [compound 8, M-(5-cyclopropyl-1G-pyrazol-3-yl)-2-(1,2,3,6-tetrahydropyridin-4-yl)quinazolin-4-amine trifluoroacetic acid], for which the activity at 1 µM in data set [1] was found to be 57.2%. Moreover, in data set [2], the “pENSA (%) Immunofluor ecense (1 µM)” value amounted to 53%. For the same compound, the viability at 1 µM worked out at 80.8% in data set [3] and 64.3% in data set [4].

With `O=C(c1ccccc1)N1CC=C(c2nc(Nc3cc(C4CC4)[nH]n3)c3ccccc3n2)CC1` [compound 9a, (4-(4-((5-cyclopropyl-1G-pyrazol-3-yl)amino)quinazolin-2-yl)-3,6-dihydropyridin-1(2G)-yl)(phenyl)methanone], the IC50 in data set [1] came to 203 nM. In addition, the activity at 1 µM in data set [1] (compound 1 µM) came to 45.5%. Besides, in data set [2], the “pENSA (%) Immunofluor ecense (1 µM)” value was 50.5%. Moreover, the viability at 1 µM in data set [3] was determined as 49.7%; in data set [4], 63.8%.

Regarding `CC(C)(C)OC(=O)N1CCN(c2nc(Nc3cc(C4CC4)[nH]n3)c3ccccc3n2)CC1` [compound 10, sdqs-butyl 4-(4-((5-cyclopropyl-1G-pyrazol-3-yl)amino)quinazolin-2-yl)piperazine-1-carboxylate], the IC50 in data set [1] amounted to 569 nM. Also, in data set [1] (compound 1 µM), the activity at 1 µM came out at 24.1%. For the same compound, the “pENSA (%) Immunofluor ecense (1 µM)” value in data set [2] worked out at 50.3%. For the same compound, the viability at 1 µM is 60.7% in data set [3] and 61.4% in data set [4].

Regarding `O=C(Nc1ccccc1)N1CC2CC1CN2c1nc(Nc2cc(C3CC3)[nH]n2)c2ccccc2n1` (stereo not drawn) [compound 15c, 5-(4-((5-cyclopropyl-1G-pyrazol-3-yl)amino)quinazolin-2-yl)-M-phenyl-2,5-diazabicyclo[2.2.1]heptane-2-carboxamide], the IC50 in data set [1] stood at 265 nM; in data set [2] (read-out: IC50(nM) pENSA), 576 nM. Further, the activity at 1 µM in data set [1] (compound 1 µM) amounted to 41.2%. Also, the “pENSA (%) Immunofluor ecense (1 µM)” value in data set [2] was 11.3%. In addition, the results for the viability at 1 µM in data set [3] and in data set [4] were 40% and 93%, respectively.

As to `CC(C)C(=O)N1CC2CC1CN2c1nc(Nc2cc(C3CC3)[nH]n2)c2ccccc2n1` (stereo not drawn) [compound 15d, 1-(5-(4-((5-cyclopropyl-1G-pyrazol-3-yl)amino)quinazolin-2-yl)-2,5-diazabicyclo[2.2.1]heptan-2-yl)-2-methylpropan-1-one], the activity at 1 µM in data set [1] (compound 1 µM) amounted to 58.8%. For the same compound, the “pENSA (%) Immunofluor ecense (1 µM)” value in data set [2] stood at 68.6%. Also, the viability at 1 µM stood at 40.3% in data set [3] and 51.5% in data set [4].

In the case of `O=C(c1ccccc1)N1CC2CC1CN2c1nc(Nc2cc(C3CC3)[nH]n2)c2ccccc2n1` (stereo not drawn) [compound 15e, (5-(4-((5-cyclopropyl-1G-pyrazol-3-yl)amino)quinazolin-2-yl)-2,5-diazabicyclo[2.2.1]heptan-2-yl)(phenyl)methanone], the activity at 1 µM in data set [1] (compound 1 µM) was 80%. For the same compound, the “pENSA (%) Immunofluor ecense (1 µM)” value in data set [2] was 48.2%. Further, the figures for the viability at 1 µM in data set [3] and in data set [4] were 31.3% and 68.3%, respectively.

As for `CC(C)CN1CC2CC1CN2c1nc(Nc2cc(C3CC3)[nH]n2)c2ccccc2n1` (stereo not drawn) [compound 15f, M-(5-cyclopropyl-1G-pyrazol-3-yl)-2-(5-isobutyl-2,5-diazabicyclo[2.2.1]heptan-2-yl)quinazolin-4-amine], the activity at 1 µM in data set [1] (compound 1 µM) turned out to be 65.7%. For the same compound, the “pENSA (%) Immunofluor ecense (1 µM)” value in data set [2] amounted to 65.3%. In addition, the values for the viability at 1 µM in data set [3] and in data set [4] were 90.1% and 71.7%, respectively.

On to `c1ccc(CN2CC3CC2CN3c2nc(Nc3cc(C4CC4)[nH]n3)c3ccccc3n2)cc1` (stereo not drawn) [compound 15g, 2-(5-benzyl-2,5-diazabicyclo[2.2.1]heptan-2-yl)-M-(5-cyclopropyl-1G-pyrazol-3-yl)quinazolin-4-amine], for which the IC50 in data set [1] came to 225 nM. Further, the activity at 1 µM in data set [1] (compound 1 µM) came to 27.9%. For the same compound, the “pENSA (%) Immunofluor ecense (1 µM)” value in data set [2] is given as 65.6%. For the same compound, the viability at 1 µM in data set [3] is 42.9%; in data set [4] it was 54.4%.

As to `O=S(=O)(c1cccc(Cl)c1)N1CC2CC1CN2c1nc(Nc2cc(C3CC3)[nH]n2)c2ccccc2n1` (stereo not drawn) [compound 15q, 2-(5-((3-chlorophenyl)sulfonyl)-2,5-diazabicyclo[2.2.1]heptan-2-yl)-M-(5-cyclopropyl-1G-pyrazol-3-yl)quinazolin-4-amine], in data set [1], the IC50 came to 545 nM. In addition, the activity at 1 µM in data set [1] (compound 1 µM) is 49.2%. The “pENSA (%) Immunofluor ecense (1 µM)” value in data set [2] is 62.5%. In addition, the viability at 1.1 µM in data set [3] worked out at 108%; in data set [4] (read-out: Cell viability (%) WST-8, MCF7, footnote d: concentration 1.1 µM, 72 hours), 106%.

As to `O=S(=O)(c1cccc(C(F)(F)F)c1)N1CC2CC1CN2c1nc(Nc2cc(C3CC3)[nH]n2)c2ccccc2n1` (stereo not drawn) [compound 15u, M-(5-cyclopropyl-1G-pyrazol-3-yl)-2-(5-((3-(trifluoromethyl)phenyl)sulfonyl)-2,5-diazabicyclo[2.2.1]heptan-2-yl)quinazolin-4-amine], the IC50 in data set [1] came to 269 nM. Further, in data set [1] (compound 1 µM), the activity at 1 µM was found to be 48.3%. Also, the “pENSA (%) Immunofluor ecense (1 µM)” value in data set [2] is given as 100%. Besides, the viability at 1 µM in data set [3] stood at 121%; in data set [4], 107%.

In the case of `Cc1ccc(S(=O)(=O)N2CC3CC2CN3c2nc(Nc3cc(C4CC4)[nH]n3)c3ccccc3n2)cc1F` (stereo not drawn) [compound 15w, M-(5-cyclopropyl-1G-pyrazol-3-yl)-2-(5-((3-fluoro-4-methylphenyl)sulfonyl)-2,5-diazabicyclo[2.2.1]heptan-2-yl)quinazolin-4-amine], the activity at 1 µM in data set [1] (compound 1 µM) was 64.1%. In addition, in data set [2], the “pENSA (%) Immunofluor ecense (1 µM)” value worked out at 86.2%. Moreover, the figures for the viability at 1 µM in data set [3] and in data set [4] were 107% and 93.5%, respectively.
